# In the supplement of paper PMC10307832:
# How the values were obtained:
# Assay in all cases: relative viability (nuclei count vs DMSO), 5 days (fraction); higher = more cells survive
# Pictilisib + Lapatinib = compound: CS(=O)(=O)N1CCN(Cc2cc3nc(-c4cccc5[nH]ncc45)nc(N4CCOCC4)c3s2)CC1 [Pictilisib] + CS(=O)(=O)CCNCc1ccc(-c2ccc3ncnc(Nc4ccc(OCc5cccc(F)c5)c(Cl)c4)c3c2)o1 [Lapatinib] (partner 2 µM)
# Summary of the method: (§1)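 Lung cancer cell lines were pin-tool dosed in 1536-well plates on the day after seeding, with either a lone drug or a fixed anchor-drug dose plus five library-drug doses (not always all listed) in √10 steps. Nuclei were counted on 4× images after 5 days. Relative viability is the ratio of treated-well to vehicle-well nuclei counts, with each value a median of duplicate plates.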
# Pictilisib + Phenformin = compound: CS(=O)(=O)N1CCN(Cc2cc3nc(-c4cccc5[nH]ncc45)nc(N4CCOCC4)c3s2)CC1 [Pictilisib] + N=C(N)NC(=N)NCCc1ccccc1 [Phenformin] (partner 250 µM)
# Summary of the method: as §1
# MK-2206 + Navitoclax = compound: NC1(c2ccc(-c3nc4ccn5c(=O)[nH]nc5c4cc3-c3ccccc3)cc2)CCC1 [MK-2206] + CC1(C)CCC(c2ccc(Cl)cc2)=C(CN2CCN(c3ccc(C(=O)NS(=O)(=O)c4ccc(N[C@H](CCN5CCOCC5)CSc5ccccc5)c(S(=O)(=O)C(F)(F)F)c4)cc3)CC2)C1 [Navitoclax] (partner 0.5 µM)
# Summary of the method: as §1
# MK-2206 + Luminespib = compound: NC1(c2ccc(-c3nc4ccn5c(=O)[nH]nc5c4cc3-c3ccccc3)cc2)CCC1 [MK-2206] + CCNC(=O)c1noc(-c2cc(C(C)C)c(O)cc2O)c1-c1ccc(CN2CCOCC2)cc1 [Luminespib] (partner 0.01 µM)
# Summary of the method: as §1
# MK-2206 + Decitabine = compound: NC1(c2ccc(-c3nc4ccn5c(=O)[nH]nc5c4cc3-c3ccccc3)cc2)CCC1 [MK-2206] + Nc1ncn([C@H]2C[C@H](O)[C@@H](CO)O2)c(=O)n1 [Decitabine] (partner 2 µM)
# Summary of the method: as §1
Cell Line,relative viability (Pictilisib + Lapatinib; first compound 0.02 µM),relative viability (Pictilisib + Lapatinib; first compound 0.06325 µM),relative viability (Pictilisib + Lapatinib; first compound 0.6325 µM),relative viability (Pictilisib + Lapatinib; first compound 2 µM),relative viability (Pictilisib + Phenformin; first compound 0.02 µM),relative viability (Pictilisib + Phenformin; first compound 0.06325 µM),relative viability (Pictilisib + Phenformin; first compound 0.6325 µM),relative viability (Pictilisib + Phenformin; first compound 2 µM),relative viability (MK-2206 + Navitoclax; first compound 0.01 µM),relative viability (MK-2206 + Navitoclax; first compound 0.03162 µM),relative viability (MK-2206 + Navitoclax; first compound 0.3162 µM),relative viability (MK-2206 + Navitoclax; first compound 1 µM),relative viability (MK-2206 + Luminespib; first compound 0.01 µM),relative viability (MK-2206 + Luminespib; first compound 0.03162 µM),relative viability (MK-2206 + Luminespib; first compound 0.3162 µM),relative viability (MK-2206 + Luminespib; first compound 1 µM),relative viability (MK-2206 + Decitabine; first compound 0.01 µM),relative viability (MK-2206 + Decitabine; first compound 0.03162 µM),relative viability (MK-2206 + Decitabine; first compound 0.3162 µM),relative viability (MK-2206 + Decitabine; first compound 1 µM)
HCC-44,0.86,0.977,1.06,0.674,0.215,0.151,0.154,0.0888,0.868,0.962,0.868,0.818,1.05,1.2,1.21,1.09,0.959,0.968,0.934,0.908
HCC-78,0.685,0.749,0.594,0.181,0.587,0.705,0.427,0.312,0.735,0.875,0.732,0.488,–,–,–,–,0.678,0.666,0.643,0.699
HCC-366,1.04,1,0.665,0.162,0.631,0.702,0.269,0.129,1.04,1.11,0.736,1.04,–,–,–,–,0.358,0.334,0.339,0.32
HCC-827,0.171,0.209,0.173,0.186,0.423,0.419,0.376,0.306,1.06,1.12,1.04,1.01,0.638,0.723,0.421,0.636,0.347,0.256,0.276,0.228
HOP-62,1.15,1.44,0.931,0.742,0.681,0.701,0.717,0.598,0.909,1.24,1.02,1.1,0.91,0.899,0.919,0.854,0.202,0.227,0.237,0.255
IA-LM,0.926,0.79,0.678,0.364,–,–,–,–,0.724,0.835,0.801,0.669,–,–,–,–,–,–,–,–
LC-2-ad,0.989,1.13,0.506,0.439,0.593,0.636,0.464,0.323,0.423,0.506,0.288,0.3,1.01,1.01,1.24,1.08,0.748,0.79,0.859,0.881
LCLC-97TM1,0.672,0.93,0.768,0.446,0.435,0.415,0.398,0.194,0.522,0.499,0.404,0.361,0.873,0.775,0.618,0.616,0.242,0.259,0.26,0.206
LCLC-103H,–,–,–,–,0.378,0.312,0.294,0.214,–,–,–,–,0.983,1.06,0.975,0.89,0.721,0.755,0.735,0.691
NCI-H358,0.49,0.503,0.311,0.29,0.348,0.38,0.207,0.151,–,–,–,–,0.0868,0.829,0.234,0.318,0.216,0.208,0.201,0.217
NCI-H441,–,–,–,–,0.822,0.789,0.601,0.337,0.77,0.639,0.6,0.505,0.31,0.409,0.271,0.262,0.248,0.251,0.206,0.234
NCI-H522,–,–,–,–,0.749,0.676,0.613,0.603,–,–,–,–,1.28,1.31,1.17,1.19,0.701,0.677,0.612,0.654
NCI-H650,1.27,0.997,0.798,0.689,0.468,0.457,0.357,0.394,–,–,–,–,0.747,0.86,0.897,0.788,0.344,0.306,0.347,0.284
NCI-H661,0.461,0.444,0.447,0.27,0.302,0.282,0.269,0.216,–,–,–,–,0.93,0.884,0.968,0.947,0.538,0.574,0.591,0.528
NCI-H1299,1.02,1.01,1,1.01,–,–,–,–,1.09,1.05,1.06,1.05,–,–,–,–,–,–,–,–
NCI-H1563,1,0.948,0.696,0.564,0.663,0.692,0.56,0.501,–,–,–,–,0.528,0.518,0.577,0.477,–,–,–,–
NCI-H1623,–,–,–,–,0.646,0.61,0.54,0.274,–,–,–,–,0.499,0.526,0.492,0.458,–,–,–,–
NCI-H1648,–,–,–,–,–,–,–,–,–,–,–,–,–,–,–,–,0.405,0.574,0.483,0.575
NCI-H1703,0.939,1.33,0.405,0.247,–,–,–,–,1.15,0.961,0.621,0.776,–,–,–,–,–,–,–,–
NCI-H2228,1.18,1.12,0.586,0.339,0.335,0.38,0.18,0.141,1.12,0.724,0.678,0.585,0.167,0.188,0.14,0.145,–,–,–,–
NCI-H2342,–,–,–,–,0.581,0.586,0.472,0.355,–,–,–,–,0.751,0.655,0.77,0.677,0.687,0.792,0.787,0.629
SW 900,–,–,–,–,0.617,0.554,0.417,0.191,–,–,–,–,0.167,0.197,0.175,0.17,0.449,–,0.399,0.391
